Where two headings read alike, the source gives them in different places.
Assays:
Assay type in all cases: binding
[1] = biological target: T1, HeLa cell extract proteins (Homo sapiens, UniProt O00410)
T1 construct: endogenous in cells; host or cells: HeLa cell extract
T1 sequence (O00410 1-1097): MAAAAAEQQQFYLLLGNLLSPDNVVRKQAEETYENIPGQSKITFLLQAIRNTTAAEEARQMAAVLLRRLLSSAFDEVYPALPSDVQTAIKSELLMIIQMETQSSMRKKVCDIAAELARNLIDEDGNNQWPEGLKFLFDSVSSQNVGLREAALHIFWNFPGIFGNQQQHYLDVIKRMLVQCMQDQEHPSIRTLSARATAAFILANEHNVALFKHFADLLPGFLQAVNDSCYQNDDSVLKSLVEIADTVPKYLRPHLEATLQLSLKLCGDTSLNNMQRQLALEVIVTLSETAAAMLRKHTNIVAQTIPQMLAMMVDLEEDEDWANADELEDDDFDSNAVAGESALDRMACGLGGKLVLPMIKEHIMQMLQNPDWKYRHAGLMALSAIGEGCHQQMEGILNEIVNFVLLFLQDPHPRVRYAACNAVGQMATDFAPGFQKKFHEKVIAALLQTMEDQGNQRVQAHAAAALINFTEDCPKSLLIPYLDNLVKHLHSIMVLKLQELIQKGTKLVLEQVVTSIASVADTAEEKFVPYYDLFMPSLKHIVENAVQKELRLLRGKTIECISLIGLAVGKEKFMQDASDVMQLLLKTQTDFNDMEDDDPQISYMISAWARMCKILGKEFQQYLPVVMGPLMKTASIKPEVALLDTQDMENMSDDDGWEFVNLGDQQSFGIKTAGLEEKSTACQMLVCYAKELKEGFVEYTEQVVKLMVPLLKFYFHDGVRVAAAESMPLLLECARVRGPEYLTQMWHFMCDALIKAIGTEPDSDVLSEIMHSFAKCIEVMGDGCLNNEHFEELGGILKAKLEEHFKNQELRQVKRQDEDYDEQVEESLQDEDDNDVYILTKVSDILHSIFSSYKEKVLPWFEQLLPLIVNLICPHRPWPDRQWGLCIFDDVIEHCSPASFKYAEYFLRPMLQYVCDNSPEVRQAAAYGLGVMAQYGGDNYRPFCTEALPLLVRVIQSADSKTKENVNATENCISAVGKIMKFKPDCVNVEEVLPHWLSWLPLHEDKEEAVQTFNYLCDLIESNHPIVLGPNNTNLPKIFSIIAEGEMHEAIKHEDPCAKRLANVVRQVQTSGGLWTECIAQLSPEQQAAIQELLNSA

[2] = biological target: T2, HeLa cell extract proteins (Homo sapiens, UniProt O60701)
T2 construct: endogenous in cells; host or cells: HeLa cell extract
T2 sequence (O60701 1-494): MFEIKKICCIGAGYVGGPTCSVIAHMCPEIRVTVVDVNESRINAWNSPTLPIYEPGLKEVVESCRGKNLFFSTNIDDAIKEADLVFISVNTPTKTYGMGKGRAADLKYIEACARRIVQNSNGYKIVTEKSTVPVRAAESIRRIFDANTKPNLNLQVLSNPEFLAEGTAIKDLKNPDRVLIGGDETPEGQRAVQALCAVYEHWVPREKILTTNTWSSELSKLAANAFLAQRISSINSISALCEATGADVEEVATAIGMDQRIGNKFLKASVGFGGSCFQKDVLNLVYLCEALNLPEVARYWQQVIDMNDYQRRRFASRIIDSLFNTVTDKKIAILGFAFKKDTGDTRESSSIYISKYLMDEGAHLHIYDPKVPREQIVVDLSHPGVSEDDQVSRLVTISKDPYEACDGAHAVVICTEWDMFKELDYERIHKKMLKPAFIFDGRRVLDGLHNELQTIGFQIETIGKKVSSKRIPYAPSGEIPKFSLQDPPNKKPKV

[3] = biological target: T3, HeLa cell extract proteins (Homo sapiens, UniProt Q5T4S7)
T3 construct: endogenous in cells; host or cells: HeLa cell extract

[4] = biological target: T4, HeLa cell extract proteins (Homo sapiens, UniProt Q86VP6)
T4 construct: endogenous in cells; host or cells: HeLa cell extract
T4 sequence (Q86VP6 1-1230): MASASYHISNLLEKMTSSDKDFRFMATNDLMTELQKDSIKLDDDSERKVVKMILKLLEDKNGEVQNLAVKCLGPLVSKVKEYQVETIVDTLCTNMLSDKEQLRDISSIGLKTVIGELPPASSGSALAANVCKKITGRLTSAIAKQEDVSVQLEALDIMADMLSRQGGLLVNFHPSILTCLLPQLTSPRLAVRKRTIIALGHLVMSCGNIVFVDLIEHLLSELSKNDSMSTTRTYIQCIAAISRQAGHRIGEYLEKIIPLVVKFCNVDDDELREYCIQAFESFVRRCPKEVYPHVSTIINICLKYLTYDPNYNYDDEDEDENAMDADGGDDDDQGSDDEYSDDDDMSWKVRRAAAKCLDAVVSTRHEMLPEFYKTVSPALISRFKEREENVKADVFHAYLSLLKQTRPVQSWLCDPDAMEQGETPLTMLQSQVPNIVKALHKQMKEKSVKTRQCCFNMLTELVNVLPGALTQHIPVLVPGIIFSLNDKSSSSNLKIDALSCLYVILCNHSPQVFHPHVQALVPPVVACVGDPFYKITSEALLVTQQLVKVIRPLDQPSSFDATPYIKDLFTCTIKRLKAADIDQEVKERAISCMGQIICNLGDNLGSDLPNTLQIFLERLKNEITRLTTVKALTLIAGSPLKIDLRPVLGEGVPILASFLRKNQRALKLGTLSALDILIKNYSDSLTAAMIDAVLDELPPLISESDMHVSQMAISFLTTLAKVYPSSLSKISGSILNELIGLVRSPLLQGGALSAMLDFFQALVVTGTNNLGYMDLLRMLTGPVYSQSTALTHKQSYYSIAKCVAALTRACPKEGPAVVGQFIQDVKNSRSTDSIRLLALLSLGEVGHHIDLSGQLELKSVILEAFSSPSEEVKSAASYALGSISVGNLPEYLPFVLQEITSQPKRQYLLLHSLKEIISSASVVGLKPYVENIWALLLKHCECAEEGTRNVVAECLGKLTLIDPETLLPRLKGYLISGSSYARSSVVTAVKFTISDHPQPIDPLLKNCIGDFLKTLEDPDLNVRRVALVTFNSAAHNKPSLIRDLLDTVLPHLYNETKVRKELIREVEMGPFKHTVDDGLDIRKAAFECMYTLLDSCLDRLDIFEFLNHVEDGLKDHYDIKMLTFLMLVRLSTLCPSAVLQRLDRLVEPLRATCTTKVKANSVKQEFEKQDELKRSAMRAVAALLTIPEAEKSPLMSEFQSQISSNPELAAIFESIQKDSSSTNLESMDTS

[5] = biological target: T5, HeLa cell extract proteins (Homo sapiens, UniProt Q9BQB6)
T5 construct: endogenous in cells; host or cells: HeLa cell extract

[6] = biological target: T6, HeLa cell extract proteins (Homo sapiens, UniProt Q9NU22)
T6 construct: endogenous in cells; host or cells: HeLa cell extract

T5 sequence (Q9BQB6 whole entry): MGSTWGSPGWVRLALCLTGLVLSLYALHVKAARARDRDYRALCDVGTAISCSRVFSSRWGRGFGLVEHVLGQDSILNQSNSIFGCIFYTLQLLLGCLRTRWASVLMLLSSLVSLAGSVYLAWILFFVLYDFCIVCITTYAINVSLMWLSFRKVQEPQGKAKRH

SMILES | fold changes relative to vehicle control ([1]; HeLa, protein IPO5) | fold changes relative to vehicle control ([2]; HeLa, protein UGDH) | fold changes relative to vehicle control ([3]; protein UBR4, HeLa) | fold changes relative to vehicle control ([4]; protein CAND1, HeLa) | fold changes relative to vehicle control ([5]; HeLa, protein VKORC1) | fold changes relative to vehicle control ([6]; HeLa, protein MDN1) | fold changes relative to vehicle control [1] | fold changes relative to vehicle control [2] | fold changes relative to vehicle control [3] | fold changes relative to vehicle control [4] | fold changes relative to vehicle control [5] | fold changes relative to vehicle control [6] | fold changes relative to vehicle control ([1]; protein IPO5, HeLa) | fold changes relative to vehicle control ([2]; protein UGDH, HeLa) | fold changes relative to vehicle control ([6]; captured protein MDN1, HeLa)
Nc1nc2c(c(=O)[nH]1)N(C=O)C(CNc1ccc(C(=O)N[C@@H](CCC(=O)O)C(=O)O)cc1)CN2 (stereo partly drawn) [LEU, leucovorin] | 0.93 | 1.16 | 1.02 | 0.99 | 1.02 | 0.96 | – | – | – | – | – | – | – | – | –
Nc1nc2[nH]cc(CCc3ccc(C(=O)N[C@@H](CCC(=O)O)C(=O)O)cc3)c2c(=O)[nH]1 [PTX, pemetrexed] | – | – | – | – | – | – | 0.91 | 1.21 | 0.94 | 0.96 | 1.01 | 0.94 | – | – | –
CCCCCCOc1ccc(Cc2cnc(N)nc2N)cc1 [compound 1] | – | – | 1.14 | 1.15 | 0.98 | – | – | – | – | – | – | – | 0.99 | 1.13 | 0.94
CCCCCCOc1cccc(Cc2cnc(N)nc2N)c1 [compound 2] | – | – | 1.19 | 1.95 | 1.05 | – | – | – | – | – | – | – | 1.27 | 1.76 | 0.87
Nc1nc2cccc(-c3ccccc3)c2n1Cc1ccc(Cl)c(Cl)c1 [compound 3] | – | – | 1.08 | 0.86 | 1.03 | – | – | – | – | – | – | – | 1.03 | 0.78 | 1.17
NCCOCCOCC(=O)Nc1nc2ncc(CNc3ccc(C(=O)NC(CCC(=O)O)C(=O)O)cc3)nc2c(=O)[nH]1 (stereo not drawn) [compound 6] | 0.99 | 1.41 | 0.42 | 1.11 | 1.04 | 1.12 | – | – | – | – | – | – | – | – | –
NCCCNc1ccc(C(=O)NC(CCC(=O)O)C(=O)O)cc1 (stereo not drawn) [compound 7] | 0.94 | 0.9 | 1.02 | 0.77 | 1.11 | 1 | – | – | – | – | – | – | – | – | –

From article PMC6199744, “Development of Chemical Proteomics for the Folateome and Analysis of the Kinetoplastid Folateome” (ACS Infectious Diseases, 2018)
